Results reported in patent publication US9944678B2, “Immunomodulators” (BRISTOL-MYERS SQUIBB COMPANY, priority 2014, dated 2018).
Starred links: 1 amine or outer side, 2 acyl side, 3 side chain; linkers in the order of their positions; H or OH if unused. Positions of bridges follow the written chain, without caps; N, C: chain ends. Non-standard residues stand in square brackets, D forms with d. Residues, ends and D or L forms follow the SMILES beside them. ξ: configuration not given here. X1 = C=C[C@H]1C[C@@]1(N[*:1])C(=O)[*:2]; X2 = CC[C@H]1C[C@@]1(N[*:1])C(=O)[*:2]; Bta = N[C@@H](Cc1csc2ccccc12)C(=O)O; Hyp = O=C(O)[C@@H]1C[C@@H](O)CN1; Aic = NC1(C(=O)O)Cc2ccccc2C1; NMeNle = CCCC[C@H](NC)C(=O)O; NMeA = CN[C@@H](C)C(=O)O; Ac5c = NC1(C(=O)O)CCCC1; Dab = NCC[C@H](N)C(=O)O; Dap = NC[C@H](N)C(=O)O; Aib = CC(C)(N)C(=O)O; ξC = NC(CS)C(=O)O

How the values were obtained:
[1] = oral formulation ENTOCORT EC, extensive first-pass metabolism; cited from earlier work
[2] = biological target: T1, PD-1-Ig binding to PD-L1-TVMV-His (PD-L1-His) (Homo sapiens, UniProt Q9NZQ7); assay: PD-1/PD-L1 Homogenous Time-Resolved Fluorescence (HTRF) binding assay; conditions: PD-1-Ig/PD-L1-His binding
T1 construct: hPDL1(19-239)-TVMV-His; TVMV protease cleavage site (C); made in house; host or cells: HEK293T cells
From the text: The ability of the macrocyclic peptides of the present disclosure to bind to PD-L1 was investigated using a PD-1/PD-L1 Homogenous Time-Resolved Fluorescence (HTRF) binding assay.
Homogenous Time-Resolved Fluorescence (HTRF) Assays of Binding of Soluble PD-1 to Soluble PD-L1. Soluble PD-1 and soluble PD-L1 refers to proteins with carboxyl-end truncations that remove the transmembrane-spanning regions and are fused to heterologous sequences, specifically the Fc portion of the human immunoglobuling G sequence (Ig) or the hexahistidine epitope tag (His). All binding studies were performed in an HTRF assay buffer consisting of dPBS supplemented with 0.1% (w/v) bovine serum albumin and 0.05% (v/v) Tween-20. For the PD-1-Ig/PD-L1-His binding assay, inhibitors were pre-incubated with PD-L1-His (10 nM final) for 15 m in 4 μl of assay buffer, followed by addition of PD-1-Ig (20 nM final) in 1 μl of assay buffer and further incubation for 15 m. PD-L1 fusion proteins from either human, cynomologous macaques, mouse, or other species were used. HTRF detection was achieved using europium crypate-labeled anti-Ig monoclonal antibody (1 nM final) and allophycocyanin (APC) labeled anti-His monoclonal antibody (20 nM final). Antibodies were diluted in HTRF detection buffer and 5 μl was dispensed on top of binding reaction. The reaction was allowed to equilibrate for 30 minutes and signal (665 nm/620 nm ratio) was obtained using an EnVision fluorometer. Additional binding assays were established between PD-1-Ig/PD-L2-His (20 and 5 nM, respectively), CD80-His/PD-L1-Ig (100 and 10 nM, respectively) and CD80-His/CTLA4-Ig (10 and 5 nM, respectively). Binding/competition studies between biotinylated Compound No. 71 and human PD-L1-His were performed as follows. Macrocyclic peptide inhibitors were pre-incubated with PD-L1-His (10 nM final) for 60 minutes in 4 μl of assay buffer followed by addition of biotinylated Compound No. 71 (0.5 nM final) in 1 μl of assay buffer. Binding was allowed to equilibrate for 30 minutes followed by addition of europium crypated labeled Streptavidin (2.5 pM final) and APC-labeled anti-His (20 nM final) in 5 μl of HTRF buffer. The reaction was allowed to equilibrate for 30 m and signal (665 nm/620 nm ratio) was obtained using an EnVision fluorometer.
Recombinant Proteins. Carboxyl-truncated human PD-1 (amino acids 25-167) with a C-terminal human Ig epitope tag [hPD-1 (25-167)-3S-IG] and human PD-L1 (amino acids 18-239) with a C-terminal His epitope tag [hPD-L1(19-239)-tobacco vein mottling virus protease cleavage site (TVMV)-His] were expressed in HEK293T cells and purified sequentially by recombinant Protein A affinity chromatography and size exclusion chromatography. Human PD-L2-His (Sino Biologicals), CD80-His (Sino Biologicals), CTLA4-Ig (RnD Systems) were all obtained through commercial sources.
Ranges are as follows: A=0.10-10 μM; B=0.01-0.099 μM; C=0.004-0.0099 μM.

T1 sequence (Q9NZQ7 with tags, fused parts or gaps): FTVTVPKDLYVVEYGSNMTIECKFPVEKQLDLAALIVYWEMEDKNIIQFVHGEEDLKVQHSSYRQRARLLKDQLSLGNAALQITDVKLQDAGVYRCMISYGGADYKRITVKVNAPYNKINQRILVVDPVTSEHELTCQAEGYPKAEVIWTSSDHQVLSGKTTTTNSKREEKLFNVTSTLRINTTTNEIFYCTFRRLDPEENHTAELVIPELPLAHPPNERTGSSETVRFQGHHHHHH

SMILES | IC50 ([2]; values given as range classes) | further results
CCCC1O[C@@H]2C[C@H]3[C@@H]4CCC5=CC(=O)C=C[C@]5(C)[C@H]4[C@@H](O)C[C@]3(C)[C@]2(C(=O)CO)O1 (stereo partly shown) [budesonide] |  | bioavailability [1]: about 10%
CCCC[C@H]1C(=O)N(C)[C@@H](CCCC)C(=O)N[C@@H](CC(C)C)C(=O)N[C@H](C(=O)NCC(N)=O)CSCC(=O)N[C@@H](Cc2ccc(O)cc2)C(=O)N(C)[C@@H](C)C(=O)N[C@@H](CC(N)=O)C(=O)N2CCC[C@H]2C(=O)NC(C)(C)C(=O)N[C@@H](CC(C)C)C(=O)N2C[C@H](O)C[C@H]2C(=O)N[C@@H](Cc2c[nH]c3ccccc23)C(=O)N[C@@H](CCN)C(=O)N[C@@H](Cc2c[nH]c3ccccc23)C(=O)N1C [Example 9011] ({CH2CO}-Y[NMeA]NP[Aib]L[Hyp]W[Dab]W[NMeNle][NMeNle]LCG-NH2; thioether N-14) |  | IC50 ([2]; numeric values): 20 nM
CCCC[C@H]1C(=O)N(C)[C@@H](CCCC)C(=O)NC2(Cc3ccccc3C2)C(=O)N[C@H](C(=O)NCC(N)=O)CSCC(=O)N[C@@H](Cc2ccc(O)cc2)C(=O)N(C)[C@@H](C)C(=O)N[C@@H](CC(N)=O)C(=O)N2CCC[C@H]2C(=O)N[C@@H](CN)C(=O)N[C@@H](CC(C)C)C(=O)N2C[C@H](O)C[C@H]2C(=O)N[C@@H](Cc2c[nH]c3ccccc23)C(=O)N[C@@H](CCN)C(=O)N[C@@H](Cc2c[nH]c3ccccc23)C(=O)N1C [Example 9016] ({CH2CO}-Y[NMeA]NP[Dap]L[Hyp]W[Dab]W[NMeNle][NMeNle][Aic]CG-NH2; thioether N-14) | 10 to 99 nM | 
CCCC[C@H]1C(=O)N(C)[C@@H](CCCC)C(=O)NC2(CCCC2)C(=O)N[C@H](C(=O)NCC(N)=O)CSCC(=O)N[C@@H](Cc2ccc(O)cc2)C(=O)N(C)[C@@H](C)C(=O)N[C@@H](CC(N)=O)C(=O)N2CCC[C@H]2C(=O)N[C@@H](CN)C(=O)N[C@@H](CC(C)C)C(=O)N2C[C@H](O)C[C@H]2C(=O)N[C@@H](Cc2c[nH]c3ccccc23)C(=O)N[C@@H](CCN)C(=O)N[C@@H](Cc2c[nH]c3ccccc23)C(=O)N1C [Example 9015] ({CH2CO}-Y[NMeA]NP[Dap]L[Hyp]W[Dab]W[NMeNle][NMeNle][Ac5c]CG-NH2; thioether N-14) | 10 to 99 nM | 
C=C[C@H]1C[C@]12NC(=O)[C@H](CC(N)=O)NC(=O)[C@H](C)N(C)C(=O)[C@H](Cc1ccc(O)cc1)NC(=O)CSCC(C(=O)NCC(N)=O)NC(=O)[C@H](CCCNC(=N)N)NC(=O)[C@H](CCCC)N(C)C(=O)[C@H](CCCC)N(C)C(=O)[C@H](Cc1csc3ccccc13)NC(=O)[C@H](CO)NC(=O)[C@H](Cc1c[nH]c3ccccc13)NC(=O)[C@@H]1C[C@@H](O)CN1C(=O)[C@H](CC(C)C)NC(=O)[C@H](Cc1cnc[nH]1)NC2=O (stereo partly shown) [Example 10002] ({CH2CO}-Y[NMeA]N[X1]HL[Hyp]WS[Bta][NMeNle][NMeNle]R[ξC]G-NH2; thioether N-14) |  | IC50 ([2]; numeric values): 200 nM

Now from value to molecule, other results behind:

IC50 ([2]; values given as range classes) | SMILES | further results
100 to 10000 nM | C=C[C@H]1C[C@]12NC(=O)[C@H](CC(N)=O)NC(=O)[C@H](C)N(C)C(=O)[C@H](Cc1ccc(O)cc1)NC(=O)CSCC(C(=O)NCC(N)=O)NC(=O)[C@H](CCCNC(=N)N)NC(=O)[C@H](CCCC)N(C)C(=O)[C@H](CCCC)N(C)C(=O)[C@H](Cc1csc3ccccc13)NC(=O)[C@H](CO)NC(=O)[C@H](Cc1c[nH]c3ccccc13)NC(=O)[C@@H]1CCCN1C(=O)[C@H](CC(C)C)NC(=O)[C@H](Cc1cnc[nH]1)NC2=O (stereo partly shown) [Example 10001] ({CH2CO}-Y[NMeA]N[X1]HLPWS[Bta][NMeNle][NMeNle]R[ξC]G-NH2; thioether N-14) | 
100 to 10000 nM | CCCC[C@H]1C(=O)N(C)[C@@H](CCCC)C(=O)N[C@@H](CCCNC(=N)N)C(=O)NC(C(=O)NCC(N)=O)CSCC(=O)N[C@@H](Cc2ccc(O)cc2)C(=O)N(C)[C@@H](C)C(=O)N[C@@H](CC(N)=O)C(=O)N[C@]2(C[C@@H]2CC)C(=O)N[C@@H](Cc2cnc[nH]2)C(=O)N[C@@H](CC(C)C)C(=O)N2CCC[C@H]2C(=O)N[C@@H](Cc2c[nH]c3ccccc23)C(=O)N[C@@H](CO)C(=O)N[C@@H](Cc2c[nH]c3ccccc23)C(=O)N1C (stereo partly shown) [Example 10010] ({CH2CO}-Y[NMeA]N[X2]HLPWSW[NMeNle][NMeNle]R[ξC]G-NH2; thioether N-14) | 
